The values that follow come from the supplement of paper PMC10307832.

Holding throughout (assay): relative viability (nuclei count vs DMSO), 5 days (fraction); higher = more cells survive
Compound in assay [1]: COc1cc2nc(N3CCCN(C)CC3)nc(NC3CCN(Cc4ccccc4)CC3)c2cc1OC + Cc1nc(NC(=O)N2CCC[C@H]2C(N)=O)sc1-c1ccnc(C(C)(C)C(F)(F)F)c1 [Alpelisib] (partner 2 µM)
A digest of the protocol: (§1)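 Relative viability was taken as the ratio of nuclei in treated wells to nuclei in vehicle wells. Lung cancer cell lines in 1536-well plates received compounds by pin tool one day after seeding, either one drug alone or a fixed anchor-drug dose plus five library-drug doses (not always all listed) in √10 steps. Nuclei were counted on 4× images after 5 days of treatment, and values are medians of duplicate plates.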

Compound in assay [2]: COc1cc2nc(N3CCCN(C)CC3)nc(NC3CCN(Cc4ccccc4)CC3)c2cc1OC + Nc1ncn([C@H]2C[C@H](O)[C@@H](CO)O2)c(=O)n1 [Decitabine] (partner 2 µM)
The procedure, abridged:
as §1

Compound in the assay “AZD6482 + Lapatinib”: Cc1cc([C@@H](C)Nc2ccccc2C(=O)O)c2nc(N3CCOCC3)cc(=O)n2c1 [AZD6482] + CS(=O)(=O)CCNCc1ccc(-c2ccc3ncnc(Nc4ccc(OCc5cccc(F)c5)c(Cl)c4)c3c2)o1 [Lapatinib] (partner 2 µM)
The procedure, abridged: as §1

Compound in the assay “AZD6482 + Alpelisib”: Cc1cc([C@@H](C)Nc2ccccc2C(=O)O)c2nc(N3CCOCC3)cc(=O)n2c1 [AZD6482] + Cc1nc(NC(=O)N2CCC[C@H]2C(N)=O)sc1-c1ccnc(C(C)(C)C(F)(F)F)c1 [Alpelisib] (partner 2 µM)
The procedure, abridged: as §1

For NCI-H3122, the relative viability in assay [1] (first compound 0.2 µM) was 0.73; in assay [1] (first compound 0.6325 µM), 0.803; in assay [1] (first compound 2 µM), 0.834; in assay [1] (first compound 6.325 µM) it was 0.723; in assay [2] (first compound 0.2 µM), 0.398; in assay [2] (first compound 0.6325 µM), 0.451. Besides, the relative viability worked out at 0.461 in assay [2] (first compound 2 µM); 0.363 in assay [2] (first compound 6.325 µM); 0.965 with AZD6482 + Lapatinib (first compound 0.08 µM); 0.993 with AZD6482 + Lapatinib (first compound 0.253 µM); 1.03 with AZD6482 + Lapatinib (first compound 0.8 µM); 0.893 in the assay with AZD6482 + Lapatinib (first compound 2.53 µM). Besides, the relative viability is 1.11 in the assay with AZD6482 + Lapatinib (first compound 8 µM); 0.696 with AZD6482 + Alpelisib (first compound 0.08 µM); 0.717 with AZD6482 + Alpelisib (first compound 0.253 µM); 0.754 in the assay with AZD6482 + Alpelisib (first compound 0.8 µM); 0.394 with AZD6482 + Alpelisib (first compound 2.53 µM); 0.677 with AZD6482 + Alpelisib (first compound 8 µM).
In the case of PC-3 [JPC-3], the relative viability worked out at 1.06 in assay [1] (first compound 0.2 µM); 0.97 in assay [1] (first compound 0.6325 µM); 1.09 in assay [1] (first compound 2 µM); 0.986 in assay [1] (first compound 6.325 µM); 0.863 in assay [2] (first compound 0.2 µM); 0.805 in assay [2] (first compound 0.6325 µM). Further, the relative viability in assay [2] (first compound 2 µM) turned out to be 0.718; in assay [2] (first compound 6.325 µM), 0.674; with AZD6482 + Lapatinib (first compound 0.08 µM), 0.438; in the assay with AZD6482 + Lapatinib (first compound 0.253 µM), 0.433; with AZD6482 + Lapatinib (first compound 0.8 µM) it was 0.438; in the assay with AZD6482 + Lapatinib (first compound 2.53 µM), 0.349. The relative viability with AZD6482 + Lapatinib (first compound 8 µM) was 0.422; with AZD6482 + Alpelisib (first compound 0.08 µM) it was 0.855; with AZD6482 + Alpelisib (first compound 0.253 µM) it was 0.997; in the assay with AZD6482 + Alpelisib (first compound 0.8 µM), 0.983; with AZD6482 + Alpelisib (first compound 2.53 µM) it was 0.877; with AZD6482 + Alpelisib (first compound 8 µM), 0.97.
Regarding PC-14, the relative viability in assay [1] (first compound 0.2 µM) worked out at 0.981; in assay [1] (first compound 0.6325 µM), 0.918; in assay [1] (first compound 2 µM), 1.05; in assay [1] (first compound 6.325 µM), 0.901; in assay [2] (first compound 0.2 µM), 0.193; in assay [2] (first compound 0.6325 µM) it was 0.223. In addition, the relative viability in assay [2] (first compound 2 µM) amounted to 0.241; in assay [2] (first compound 6.325 µM), 0.0753; in the assay with AZD6482 + Lapatinib (first compound 0.08 µM) it was 0.257; with AZD6482 + Lapatinib (first compound 0.253 µM), 0.234; with AZD6482 + Lapatinib (first compound 0.8 µM), 0.255; with AZD6482 + Lapatinib (first compound 2.53 µM) it was 0.196. The relative viability with AZD6482 + Lapatinib (first compound 8 µM) is 0.219; with AZD6482 + Alpelisib (first compound 0.08 µM), 0.857; in the assay with AZD6482 + Alpelisib (first compound 0.253 µM), 0.882; in the assay with AZD6482 + Alpelisib (first compound 0.8 µM), 0.832; with AZD6482 + Alpelisib (first compound 2.53 µM) it was 0.663; with AZD6482 + Alpelisib (first compound 8 µM), 0.807.
For RERF-LC-KJ, the relative viability in assay [1] (first compound 0.2 µM) was found to be 0.905; in assay [1] (first compound 0.6325 µM) it was 0.878; in assay [1] (first compound 2 µM), 0.902; in assay [1] (first compound 6.325 µM), 0.661; in assay [2] (first compound 0.2 µM) it was 0.743; in assay [2] (first compound 0.6325 µM) it was 0.699. Moreover, the relative viability in assay [2] (first compound 2 µM) was found to be 0.733; in assay [2] (first compound 6.325 µM), 0.679; with AZD6482 + Lapatinib (first compound 0.08 µM), 0.752; with AZD6482 + Lapatinib (first compound 0.253 µM), 0.836; with AZD6482 + Lapatinib (first compound 0.8 µM), 0.705; with AZD6482 + Lapatinib (first compound 2.53 µM) it was 0.791. Moreover, the relative viability in the assay with AZD6482 + Lapatinib (first compound 8 µM) worked out at 0.67; with AZD6482 + Alpelisib (first compound 0.08 µM), 0.653; in the assay with AZD6482 + Alpelisib (first compound 0.253 µM), 0.614; with AZD6482 + Alpelisib (first compound 0.8 µM), 0.6; with AZD6482 + Alpelisib (first compound 2.53 µM), 0.559; with AZD6482 + Alpelisib (first compound 8 µM) it was 0.637.
Turning to SK-LU-1, the relative viability in assay [1] (first compound 0.2 µM) was 1.21; in assay [1] (first compound 0.6325 µM), 0.977; in assay [1] (first compound 2 µM) it was 1.04; in assay [1] (first compound 6.325 µM), 0.577; in assay [2] (first compound 0.2 µM), 0.644; in assay [2] (first compound 0.6325 µM) it was 0.706. Also, the relative viability in assay [2] (first compound 2 µM) was found to be 0.703; in assay [2] (first compound 6.325 µM) it was 0.618; with AZD6482 + Lapatinib (first compound 0.253 µM) it was 0.76; with AZD6482 + Lapatinib (first compound 0.8 µM), 0.849; in the assay with AZD6482 + Lapatinib (first compound 2.53 µM) it was 0.687; with AZD6482 + Lapatinib (first compound 8 µM) it was 0.513. The relative viability with AZD6482 + Alpelisib (first compound 0.253 µM) is 0.89; with AZD6482 + Alpelisib (first compound 0.8 µM) it was 0.892; with AZD6482 + Alpelisib (first compound 2.53 µM), 0.76; in the assay with AZD6482 + Alpelisib (first compound 8 µM), 0.76.
As to SK-MES-1, the relative viability in assay [1] (first compound 0.2 µM) came out at 1.08; in assay [1] (first compound 0.6325 µM), 0.887; in assay [1] (first compound 2 µM), 0.975; in assay [1] (first compound 6.325 µM), 0.827; in assay [2] (first compound 0.2 µM), 0.371; in assay [2] (first compound 0.6325 µM), 0.351. Also, the relative viability in assay [2] (first compound 2 µM) is 0.316; in assay [2] (first compound 6.325 µM), 0.101; in the assay with AZD6482 + Lapatinib (first compound 0.08 µM), 0.363; with AZD6482 + Lapatinib (first compound 0.253 µM), 0.366; with AZD6482 + Lapatinib (first compound 0.8 µM) it was 0.367; in the assay with AZD6482 + Lapatinib (first compound 2.53 µM) it was 0.301. Also, the relative viability came out at 0.319 with AZD6482 + Lapatinib (first compound 8 µM); 0.515 in the assay with AZD6482 + Alpelisib (first compound 0.08 µM); 0.658 in the assay with AZD6482 + Alpelisib (first compound 0.253 µM); 0.459 with AZD6482 + Alpelisib (first compound 0.8 µM); 0.269 with AZD6482 + Alpelisib (first compound 2.53 µM); 0.433 with AZD6482 + Alpelisib (first compound 8 µM).
Take SW 1573: the relative viability in assay [1] (first compound 0.2 µM) was 0.614; in assay [1] (first compound 0.6325 µM) it was 0.696; in assay [1] (first compound 2 µM), 0.729; in assay [1] (first compound 6.325 µM) it was 0.724; in assay [2] (first compound 0.2 µM), 0.542; in assay [2] (first compound 0.6325 µM), 0.48. Besides, the relative viability in assay [2] (first compound 2 µM) was 0.402; in assay [2] (first compound 6.325 µM), 0.182; in the assay with AZD6482 + Lapatinib (first compound 0.08 µM) it was 1.15; with AZD6482 + Lapatinib (first compound 0.253 µM) it was 1.13; in the assay with AZD6482 + Lapatinib (first compound 0.8 µM) it was 1.02; in the assay with AZD6482 + Lapatinib (first compound 2.53 µM) it was 0.771. The relative viability was determined as 0.759 with AZD6482 + Lapatinib (first compound 8 µM); 0.518 with AZD6482 + Alpelisib (first compound 0.08 µM); 0.533 with AZD6482 + Alpelisib (first compound 0.253 µM); 0.47 with AZD6482 + Alpelisib (first compound 0.8 µM); 0.303 in the assay with AZD6482 + Alpelisib (first compound 2.53 µM); 0.407 in the assay with AZD6482 + Alpelisib (first compound 8 µM).
